Test results from PubChem BioAssay (NCI).
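A five-concentration, 48-hour dose response in 96-well plates underlies each endpoint, interpolated linearly between surrounding concentrations. GI50 is the concentration that inhibits growth by half. TGI: concentration producing complete growth inhibition.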

Experiments:
Test in all cases: NCI tumour cell line growth inhibition, 48 h
[1] = test system: 786-0 renal
[2] = test system: A498 renal
[3] = test system: A549 NSCLC
[4] = test system: ACHN renal
[5] = test system: BT-549 breast
[6] = test system: CAKI-1 renal
[7] = test system: CCRF-CEM leukemia
[8] = test system: COLO 205 colon
[9] = test system: DU-145 prostate
[10] = test system: EKVX NSCLC
[11] = test system: HCC-2998 colon
[12] = test system: HCT-116 colon
[13] = test system: HCT-15 colon
[14] = test system: HL-60(TB) leukemia
[15] = test system: HOP-62 NSCLC
[16] = test system: HOP-92 NSCLC
[17] = test system: HS 578T breast
[18] = test system: HT29 colon
[19] = test system: IGROV1 ovarian
[20] = test system: K-562 leukemia
[21] = test system: KM12 colon
[22] = test system: LOX IMVI melanoma
[23] = test system: M14 melanoma
[24] = test system: MALME-3M melanoma
[25] = test system: MCF7 breast
[26] = test system: MDA-MB-231 breast
[27] = test system: MDA-MB-435
[28] = test system: MOLT-4 leukemia
[29] = test system: NCI-H226 lung
[30] = test system: NCI-H23 lung
[31] = test system: NCI-H460 lung
[32] = test system: NCI-H522 lung
[33] = test system: NCI/ADR-RES ovarian
[34] = test system: OVCAR-3 ovarian
[35] = test system: OVCAR-4 ovarian
[36] = test system: OVCAR-5 ovarian
[37] = test system: OVCAR-8 ovarian
[38] = test system: PC-3 prostate
[39] = test system: RPMI-8226 leukemia
[40] = test system: RXF 393 renal
[41] = test system: SF-268 CNS
[42] = test system: SF-295 CNS
[43] = test system: SF-539 CNS
[44] = test system: SK-MEL-2 melanoma
[45] = test system: SK-MEL-28 melanoma
[46] = test system: SK-MEL-5 melanoma
[47] = test system: SN12C renal
[48] = test system: SNB-19 CNS
[49] = test system: SNB-75 CNS
[50] = test system: SR leukemia
[51] = test system: SW-620 colon
[52] = test system: T-47D breast
[53] = test system: TK-10 renal
[54] = test system: U251 CNS
[55] = test system: UACC-257 melanoma
[56] = test system: UACC-62 melanoma
[57] = test system: UO-31 renal

C1=C(c2ccccc2)C(c2ccc(OCCN3CCCCC3)cc2)Oc2ccccc21 (centres undefined)
GI50 [1]: 1500 nM | TGI [1]: 2830 nM | GI50 [2]: 1670 nM | TGI [2]: 3170 nM | GI50 [3]: 2190 nM | TGI [3]: 4760 nM | GI50 [4]: 1660 nM | TGI [4]: 3150 nM | GI50 [5]: 1610 nM | TGI [5]: 3070 nM | GI50 [6]: 1340 nM | TGI [6]: 2750 nM | GI50 [7]: 2460 nM | TGI [7]: 6460 nM | GI50 [8]: 1620 nM | TGI [8]: 3150 nM | GI50 [9]: 2730 nM | TGI [9]: 9120 nM | GI50 [10]: 1540 nM | TGI [10]: 3350 nM | GI50 [11]: 1720 nM | TGI [11]: 3380 nM | GI50 [12]: 1700 nM | TGI [12]: 3070 nM | GI50 [13]: 1500 nM | TGI [13]: 2990 nM | GI50 [14]: 1730 nM | TGI [14]: 3760 nM | GI50 [15]: 1670 nM | TGI [15]: 3290 nM | GI50 [16]: 1560 nM | TGI [16]: 3250 nM | GI50 [17]: 2180 nM | TGI [17]: 5230 nM | GI50 [18]: 1760 nM | TGI [18]: 3860 nM | GI50 [19]: 2070 nM | TGI [19]: 5070 nM | GI50 [20]: 1530 nM | TGI [20]: 3380 nM | GI50 [21]: 1740 nM | TGI [21]: 3290 nM | GI50 [22]: 1650 nM | TGI [22]: 3010 nM | GI50 [23]: 1730 nM | TGI [23]: 3380 nM | GI50 [24]: 1730 nM | TGI [24]: 3480 nM | GI50 [25]: 441 nM | TGI [25]: 1880 nM | GI50 [26]: 1860 nM | TGI [26]: 3510 nM | GI50 [27]: 1640 nM | TGI [27]: 3030 nM | GI50 [28]: 2370 nM | TGI [28]: 5840 nM | GI50 [29]: 4080 nM | TGI [29]: 16700 nM | GI50 [30]: 2290 nM | TGI [30]: 6300 nM | GI50 [31]: 1940 nM | TGI [31]: 3720 nM | GI50 [32]: 1590 nM | TGI [32]: 3370 nM | GI50 [33]: 2400 nM | TGI [33]: 8160 nM | GI50 [34]: 1880 nM | TGI [34]: 4140 nM | GI50 [35]: 2370 nM | TGI [35]: 7090 nM | GI50 [36]: 1610 nM | TGI [36]: 3290 nM | GI50 [37]: 2300 nM | TGI [37]: 5910 nM | GI50 [38]: 1790 nM | TGI [38]: 3250 nM | GI50 [39]: 2250 nM | TGI [39]: 5020 nM | GI50 [40]: 1610 nM | TGI [40]: 3110 nM | GI50 [41]: 2660 nM | TGI [41]: 9930 nM | GI50 [42]: 1720 nM | TGI [42]: 3290 nM | GI50 [43]: 1620 nM | TGI [43]: 3080 nM | GI50 [44]: 2030 nM | TGI [44]: 4330 nM | GI50 [45]: 1180 nM | TGI [45]: 2540 nM | GI50 [46]: 1780 nM | TGI [46]: 3160 nM | GI50 [47]: 1920 nM | TGI [47]: 3730 nM | GI50 [48]: 2060 nM | TGI [48]: 4160 nM | GI50 [49]: 1600 nM | TGI [49]: 3440 nM | GI50 [50]: 1930 nM | TGI [50]: 3940 nM | GI50 [51]: 1830 nM | TGI [51]: 3620 nM | GI50 [52]: 1040 nM | TGI [52]: 2780 nM | GI50 [53]: 1690 nM | TGI [53]: 3400 nM | GI50 [54]: 1650 nM | TGI [54]: 3180 nM | GI50 [55]: 2020 nM | TGI [55]: 4150 nM | GI50 [56]: 1920 nM | TGI [56]: 3680 nM | GI50 [57]: 1410 nM | TGI [57]: 3160 nM
